From patent US9789101B2, “Methods and compositions for treating microbial infection using pyrroloquinone” (HELPERBY THERAPEUTICS LIMITED, priority 2010, dated 2017)

Tests used:
[1] = tested on: log phase Staphylococcus aureus; experiment: Chequerboard analysis of HT00800059 and mupirocin against log phase Staphylococcus aureus; type: cell-based, Staphylococcus aureus (Oxford)
Experimental: Staphylococcus aureus (Oxford); Gram positive; Reference strain. Log phase growth of […] sensitive Staphylococcus aureus (MSSA) was carried out as follows: • Bacteria were grown in 10 ml of nutrient broth (No. 2, (Oxoid)) overnight at 37° C. with continuous shaking at 120 rpm. […] The cultures were incubated at 37° C. with shaking for 1-2 hours to reach log CFU 6. Viability of the bacteria was estimated by colony forming unit (CFU) counts. From serial 10-fold dilutions of the experimental cultures, 100 μl samples were added to triplicate plates of nutrient agar plates (Oxoid) or blood agar plates (Oxoid). CFUs were counted after incubation of the plates at 37° C. for 24 hours. […] 290 μl of the cell suspension was added to each well of the 96 well plate, which was incubated at 37° C. for 24 hours. […] MIC determination: The optical density of the bacterial cells was read at 405 nm using a plate reader (Bio TEK). The MIC concentration was determined as the lowest concentration of drug which inhibits the bacterial growth. […] HT00800059 was dissolved in H2O to the stock solution 30.07 mg/ml. […] HT00800059 (30.7 mg/ml) was performed in a serial of 2 fold dilutions. This was followed by the addition of 280 μl of log phase culture at 10^6 CFU/ml to make the final concentrations of each drug as shown. In the above table, values in bold text are for HT00800059. Values in plain text are for mupirocin. The numbers shown in each well are μg/ml. Incubation of the compounds with the bacterial suspension was carried out for 24 hours. The kill effects of the drug combination were measured by optical density reading at 405 nm with a plate reader (Bio TEK). The fractional inhibitory concentration (FIC) index was carried out as following: (MIC of drug A, tested in combination)/(MIC of drug A, tested alone)+(MIC of drug B, tested in combination)/(MIC of drug B, tested alone). The interaction was defined as synergistic if the FIC index was <1, additive if the FIC index was =1 and antagonistic if the FIC index was >1.

[2] = tested on: Mupirocin Resistant S. aureus (28 Passages); experiment: Chequerboard analysis of HT00800059 and mupirocin against mupirocin resistant S. aureus (28 passages); type: cell-based, Staphylococcus aureus; details: for optical density reading at 405 nm: HT00800059 μg/ml: 1024,512,256,128,64,32,16,0, 24 hours
Experimental: (§1) Staphylococcus aureus (Oxford); Gram positive; Reference strain.
(§2) Log phase growth of mupirocin resistant Staphylococcus aureus (MSSA) was carried out as follows: • Bacteria were grown in 10 ml of nutrient broth (No. 2, (Oxoid)) overnight at 37° C. with continuous shaking at 120 rpm. The overnight cultures were diluted 1000× with iso-sensitest broth. The cultures were incubated at 37° C. with shaking for 1-2 hours to reach log CFU 6. Viability of the bacteria was estimated by colony forming unit (CFU) counts. From serial 10-fold dilutions of the experimental cultures, 100 μl samples were added to triplicate plates of nutrient agar plates (Oxoid) or blood agar plates (Oxoid). CFUs were counted after incubation of the plates at 37° C. for 24 hours.
(§3) Bacterial cultures: 10 μl of overnight cultures was added to 10 ml of fresh iso-sensitest broth to make the inoculation to 10^6 CFU/ml. 290 μl of the cell suspension was added to each well of the 96 well plate, which was incubated at 37° C. for 24 hours. 300 μl of iso-sensitest broth without bacterial cells were added to wells of the plate as a no bacterial control.
(§4) MIC determination: The optical density of the bacterial cells was read at 405 nm using a plate reader (Bio TEK). The MIC concentration was determined as the lowest concentration of drug which inhibits the bacterial growth.
(§5) Mupirocin was dissolved in DMSO to the stock concentration of 10 mg/ml. HT00800059 was dissolved in H2O to the stock solution 30.07 mg/ml.
(§6) Mupirocin (10 mg/ml) was firstly diluted to 3.84 mg/ml, then further diluted in a serial of 2 fold dilutions. HT00800059 (30.7 mg/ml) was performed in a serial of 2 fold dilutions.
(§7) This was followed by the addition of 280 μl of log phase culture at 10^6 CFU/ml to make the final concentrations of each drug as shown in Table 1 and Table 2.
(§8) In the above table, values in bold text are for HT00800059. Values in plain text are for mupirocin. The numbers shown in each well are μg/ml.
(§9) Incubation of the compounds with the bacterial suspension was carried out for 24 hours. The kill effects of the drug combination were measured by optical density reading at 405 nm with a plate reader (Bio TEK).
(§10) The fractional inhibitory concentration (FIC) index was carried out as following: (MIC of drug A, tested in combination)/(MIC of drug A, tested alone)+(MIC of drug B, tested in combination)/(MIC of drug B, tested alone). The interaction was defined as synergistic if the FIC index was <1, additive if the FIC index was =1 and antagonistic if the FIC index was >1.

[3] = tested on: Mupirocin Resistant S. aureus (24 Passages); experiment: Chequerboard analysis of HT00800059 and mupirocin against mupirocin resistant S. aureus (24 passages); type: cell-based, Staphylococcus aureus; details: for optical density reading at 405 nm: HT00800059 μg/ml: 1024,512,256,128,64,32,16,0, 24 hours
Experimental: as §1, §2, §3, §4, §5, §6, §7, §8, §9, §10

[4] = Staphylococcus aureus, read-out: alone MIC

C/C(=C\C(=O)OCCCCCCCCC(=O)O)C[C@@H]1OC[C@H](C[C@@H]2O[C@H]2[C@@H](C)[C@H](C)O)[C@@H](O)[C@H]1O [Mupirocin]
MIC ([1]; Staphylococcus aureus, summary list, read-out: alone MIC): 0.25 µg/mL | MIC before combination ([1]; iso-sensitest broth): 0.25 µg/mL | MIC post combination ([1]; iso-sensitest broth): 0.0625 µg/mL | MIC before combination ([1]; nutrient broth): 0.25 µg/mL | MIC post combination ([1]; nutrient broth): 0.0625 µg/mL | mupirocin MIC in combination ([1]; with HT00800059 at 256 μg/ml): 0.0625 µg/mL | optical density reading at 405 nm ([2]; 28 passages, mupirocin 0.125 μg/ml): 1.255 | optical density reading at 405 nm ([2]; 28 passages, mupirocin 0.25 μg/ml): 1.246 | optical density reading at 405 nm ([2]; 28 passages, mupirocin 0.5 μg/ml): 1.252 | optical density reading at 405 nm ([2]; 28 passages, mupirocin 1 μg/ml): 1.244 | optical density reading at 405 nm ([2]; 28 passages, mupirocin 2 μg/ml): 1.208 | optical density reading at 405 nm ([2]; 28 passages, mupirocin 4 μg/ml): 1.136 | optical density reading at 405 nm ([2]; 28 passages, mupirocin 8 μg/ml): 0.968 | optical density reading at 405 nm ([2]; 28 passages, mupirocin 16 μg/ml): 0.726 | optical density reading at 405 nm ([2]; 28 passages, mupirocin 32 μg/ml): 0.480 | optical density reading at 405 nm ([2]; 28 passages, mupirocin 64 μg/ml): 0.363 | optical density reading at 405 nm ([2]; 28 passages, mupirocin 128 μg/ml): 0.346 | MIC [2, 4]: 64 µg/mL | MIC before combination ([2]; resistant strain 28 passages): 64 µg/mL | MIC post combination ([2]; resistant strain 28 passages): 4 µg/mL | mupirocin MIC in combination ([2]; with HT00800059 at 256 μg/ml, 28 passages): 4 µg/mL | optical density reading at 405 nm ([3]; 24 passages, mupirocin 0.125 μg/ml): 1.170 | optical density reading at 405 nm ([3]; 24 passages, mupirocin 0.25 μg/ml): 1.083 | optical density reading at 405 nm ([3]; 24 passages, mupirocin 0.5 μg/ml): 1.109 | optical density reading at 405 nm ([3]; 24 passages, mupirocin 1 μg/ml): 1.056 | optical density reading at 405 nm ([3]; 24 passages, mupirocin 2 μg/ml): 0.863 | optical density reading at 405 nm ([3]; 24 passages, mupirocin 4 μg/ml): 0.629 | optical density reading at 405 nm ([3]; 24 passages, mupirocin 8 μg/ml): 0.454 | optical density reading at 405 nm ([3]; 24 passages, mupirocin 16 μg/ml): 0.386 | optical density reading at 405 nm ([3]; 24 passages, mupirocin 21 μg/ml): 0.359 | optical density reading at 405 nm ([3]; 24 passages, mupirocin 64 μg/ml): 0.356 | optical density reading at 405 nm ([3]; 24 passages, mupirocin 128 μg/ml): 0.358 | MIC [3, 4]: 16 µg/mL | MIC before combination ([3]; resistant strain 24 passages): 16 µg/mL | MIC post combination ([3]; resistant strain 24 passages): 1 µg/mL | mupirocin MIC in combination ([3]; with HT00800059 at 256 μg/ml, 24 passages): 1 µg/mL
